Tests used:
Assay in all cases: Eurofins kinase selectivity profile against 380 other human recombinant kinases (Table S2)
Assay type in all cases: biochemical
[1] = target: T1, 380 human recombinant protein kinases (Homo sapiens, UniProt P53779); conditions: JNK3(h), read-out: Inhibition rate
T1 construct: purchased Eurofins (Celle Lévescault)
In short: (§1)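 The inhibitor was sent to a contract lab and screened at various concentrations against 380 human recombinant protein kinases. This served as a counter-screen for MK2 specificity.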

[2] = target: T2, 380 human recombinant protein kinases (Homo sapiens, UniProt O94921); conditions: CDK14/cyclinY(h), read-out: Inhibition rate
T2 construct: purchased Eurofins (Celle Lévescault)
In short: as §1

[3] = target: T3, 380 human recombinant protein kinases (Homo sapiens, UniProt Q15208); conditions: NDR1(h), read-out: Inhibition rate
T3 construct: purchased Eurofins (Celle Lévescault)
In short: as §1

[4] = target: T4, 380 human recombinant protein kinases (Homo sapiens, UniProt Q13976); conditions: PKG1α(h), read-out: Inhibition rate
T4 construct: purchased Eurofins (Celle Lévescault)
T4 sequence (Q13976 1-671): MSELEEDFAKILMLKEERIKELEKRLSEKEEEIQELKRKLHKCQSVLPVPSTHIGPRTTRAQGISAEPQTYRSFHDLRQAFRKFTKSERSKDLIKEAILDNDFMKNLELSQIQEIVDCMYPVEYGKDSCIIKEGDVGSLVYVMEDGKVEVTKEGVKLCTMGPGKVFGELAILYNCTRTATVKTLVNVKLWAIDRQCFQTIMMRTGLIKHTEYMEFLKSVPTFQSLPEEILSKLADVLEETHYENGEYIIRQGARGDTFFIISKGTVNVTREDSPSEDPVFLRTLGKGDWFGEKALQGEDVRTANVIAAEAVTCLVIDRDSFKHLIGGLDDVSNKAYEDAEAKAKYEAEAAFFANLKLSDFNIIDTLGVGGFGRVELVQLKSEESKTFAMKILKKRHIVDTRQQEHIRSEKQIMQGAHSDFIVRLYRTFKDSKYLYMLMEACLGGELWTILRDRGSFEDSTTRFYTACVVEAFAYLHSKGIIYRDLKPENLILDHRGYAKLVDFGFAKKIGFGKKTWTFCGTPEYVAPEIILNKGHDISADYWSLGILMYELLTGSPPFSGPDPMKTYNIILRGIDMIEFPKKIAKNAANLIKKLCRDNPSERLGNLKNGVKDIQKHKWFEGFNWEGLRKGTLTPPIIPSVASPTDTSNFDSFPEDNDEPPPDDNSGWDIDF
In short: as §1

[5] = target: T5, 380 human recombinant protein kinases (Homo sapiens, UniProt P42336, H1047R); conditions: PI3 Kinase (p110α(H1047R)/p85α)(h), read-out: Inhibition rate (%)
T5 construct: purchased Eurofins (Celle Lévescault)
In short: as §1

[6] = target: T6, 380 human recombinant protein kinases (Homo sapiens, UniProt P16591); conditions: Fer(h), read-out: Inhibition rate
T6 construct: purchased Eurofins (Celle Lévescault)
In short: as §1

[7] = target: T7, 380 human recombinant protein kinases (Homo sapiens, UniProt P49761); conditions: CLK3(h), read-out: Inhibition rate
T7 construct: purchased Eurofins (Celle Lévescault)
In short: as §1

[8] = target: T8, 380 human recombinant protein kinases (Homo sapiens, UniProt Q13177); conditions: PAK2(h), read-out: Inhibition rate
T8 construct: purchased Eurofins (Celle Lévescault)
In short: as §1

[9] = target: T9, 380 human recombinant protein kinases (Homo sapiens, UniProt Q16566); conditions: CaMKIV(h), read-out: Inhibition rate
T9 construct: purchased Eurofins (Celle Lévescault)
T9 sequence (Q16566 1-473): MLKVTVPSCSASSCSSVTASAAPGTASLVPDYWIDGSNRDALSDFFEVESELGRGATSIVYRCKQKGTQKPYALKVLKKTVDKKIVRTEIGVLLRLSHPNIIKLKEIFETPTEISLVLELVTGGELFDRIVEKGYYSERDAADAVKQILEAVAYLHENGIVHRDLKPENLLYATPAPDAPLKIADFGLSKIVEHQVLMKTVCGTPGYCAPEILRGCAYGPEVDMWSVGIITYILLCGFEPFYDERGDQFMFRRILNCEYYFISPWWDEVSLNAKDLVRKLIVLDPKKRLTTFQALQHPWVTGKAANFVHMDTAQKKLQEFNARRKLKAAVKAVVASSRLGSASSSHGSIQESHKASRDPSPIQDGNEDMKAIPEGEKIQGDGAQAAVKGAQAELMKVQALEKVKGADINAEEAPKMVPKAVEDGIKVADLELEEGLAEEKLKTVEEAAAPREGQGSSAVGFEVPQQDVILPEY
In short: as §1

[10] = target: T10, 380 human recombinant protein kinases (Homo sapiens, UniProt P09769); conditions: Fgr(h), read-out: Inhibition rate
T10 construct: purchased Eurofins (Celle Lévescault)
In short: as §1

[11] = target: T11, 380 human recombinant protein kinases (Homo sapiens, UniProt Q7KZI7); conditions: PAR-1Bα(h), read-out: Inhibition rate
T11 construct: purchased Eurofins (Celle Lévescault)
In short: as §1

T10 sequence (P09769 whole entry): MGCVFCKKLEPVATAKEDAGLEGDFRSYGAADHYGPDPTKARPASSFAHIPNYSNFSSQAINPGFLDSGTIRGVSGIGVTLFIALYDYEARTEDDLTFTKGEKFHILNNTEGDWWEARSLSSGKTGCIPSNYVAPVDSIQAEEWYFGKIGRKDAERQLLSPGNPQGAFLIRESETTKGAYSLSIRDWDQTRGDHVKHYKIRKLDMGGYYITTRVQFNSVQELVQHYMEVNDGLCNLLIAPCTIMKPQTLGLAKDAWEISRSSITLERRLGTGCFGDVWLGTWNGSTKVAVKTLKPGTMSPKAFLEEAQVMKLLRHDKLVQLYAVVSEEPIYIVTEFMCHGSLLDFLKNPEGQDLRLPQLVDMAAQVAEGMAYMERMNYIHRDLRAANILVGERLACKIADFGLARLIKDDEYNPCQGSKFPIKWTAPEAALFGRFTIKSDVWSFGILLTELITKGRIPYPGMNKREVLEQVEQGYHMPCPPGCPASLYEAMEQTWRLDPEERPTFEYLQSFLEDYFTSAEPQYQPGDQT
T1 sequence (P53779 whole entry): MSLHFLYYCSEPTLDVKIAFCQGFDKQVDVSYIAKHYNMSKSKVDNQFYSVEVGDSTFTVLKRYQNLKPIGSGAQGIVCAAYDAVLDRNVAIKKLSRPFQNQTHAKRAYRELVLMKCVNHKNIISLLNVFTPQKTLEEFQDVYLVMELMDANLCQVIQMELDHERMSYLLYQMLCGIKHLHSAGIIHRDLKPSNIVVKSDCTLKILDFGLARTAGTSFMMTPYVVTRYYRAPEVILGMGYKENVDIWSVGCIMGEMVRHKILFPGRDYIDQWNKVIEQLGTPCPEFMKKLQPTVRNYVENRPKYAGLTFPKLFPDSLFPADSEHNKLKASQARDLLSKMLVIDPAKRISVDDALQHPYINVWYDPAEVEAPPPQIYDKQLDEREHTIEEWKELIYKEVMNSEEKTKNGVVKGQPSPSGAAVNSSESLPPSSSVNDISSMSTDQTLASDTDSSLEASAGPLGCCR
T2 sequence (O94921 whole entry): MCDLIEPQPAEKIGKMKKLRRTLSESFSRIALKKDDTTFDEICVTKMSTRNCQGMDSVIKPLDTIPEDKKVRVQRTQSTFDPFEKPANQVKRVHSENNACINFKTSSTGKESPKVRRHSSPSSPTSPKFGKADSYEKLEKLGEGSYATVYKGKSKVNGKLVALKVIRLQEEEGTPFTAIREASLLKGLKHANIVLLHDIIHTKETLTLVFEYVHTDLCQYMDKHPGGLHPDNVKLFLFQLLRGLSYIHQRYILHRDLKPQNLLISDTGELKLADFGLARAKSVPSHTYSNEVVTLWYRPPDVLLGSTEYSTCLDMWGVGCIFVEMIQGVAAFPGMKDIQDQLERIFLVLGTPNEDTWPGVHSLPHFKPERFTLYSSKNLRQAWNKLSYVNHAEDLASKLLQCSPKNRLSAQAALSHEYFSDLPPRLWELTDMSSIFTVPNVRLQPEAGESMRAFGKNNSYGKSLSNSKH
T11 sequence (Q7KZI7 whole entry): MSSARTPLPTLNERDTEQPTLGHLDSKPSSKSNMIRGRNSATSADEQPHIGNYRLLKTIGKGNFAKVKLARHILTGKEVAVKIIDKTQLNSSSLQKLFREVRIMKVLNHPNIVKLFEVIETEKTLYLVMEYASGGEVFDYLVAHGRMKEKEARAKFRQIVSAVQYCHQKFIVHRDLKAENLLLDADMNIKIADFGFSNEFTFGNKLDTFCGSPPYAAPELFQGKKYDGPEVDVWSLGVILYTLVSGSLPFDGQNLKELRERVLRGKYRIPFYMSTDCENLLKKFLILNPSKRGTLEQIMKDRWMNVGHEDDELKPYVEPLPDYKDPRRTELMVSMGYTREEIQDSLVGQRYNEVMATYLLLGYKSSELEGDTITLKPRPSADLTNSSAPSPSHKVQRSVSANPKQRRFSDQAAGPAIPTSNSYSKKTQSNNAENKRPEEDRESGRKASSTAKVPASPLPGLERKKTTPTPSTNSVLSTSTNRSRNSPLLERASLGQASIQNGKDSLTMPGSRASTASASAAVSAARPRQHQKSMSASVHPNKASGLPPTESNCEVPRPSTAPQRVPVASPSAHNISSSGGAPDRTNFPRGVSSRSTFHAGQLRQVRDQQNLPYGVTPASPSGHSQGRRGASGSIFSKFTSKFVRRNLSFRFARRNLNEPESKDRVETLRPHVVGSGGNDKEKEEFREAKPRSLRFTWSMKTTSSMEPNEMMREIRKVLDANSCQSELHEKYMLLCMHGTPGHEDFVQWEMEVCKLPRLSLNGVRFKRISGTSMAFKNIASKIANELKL
T6 sequence (P16591 whole entry): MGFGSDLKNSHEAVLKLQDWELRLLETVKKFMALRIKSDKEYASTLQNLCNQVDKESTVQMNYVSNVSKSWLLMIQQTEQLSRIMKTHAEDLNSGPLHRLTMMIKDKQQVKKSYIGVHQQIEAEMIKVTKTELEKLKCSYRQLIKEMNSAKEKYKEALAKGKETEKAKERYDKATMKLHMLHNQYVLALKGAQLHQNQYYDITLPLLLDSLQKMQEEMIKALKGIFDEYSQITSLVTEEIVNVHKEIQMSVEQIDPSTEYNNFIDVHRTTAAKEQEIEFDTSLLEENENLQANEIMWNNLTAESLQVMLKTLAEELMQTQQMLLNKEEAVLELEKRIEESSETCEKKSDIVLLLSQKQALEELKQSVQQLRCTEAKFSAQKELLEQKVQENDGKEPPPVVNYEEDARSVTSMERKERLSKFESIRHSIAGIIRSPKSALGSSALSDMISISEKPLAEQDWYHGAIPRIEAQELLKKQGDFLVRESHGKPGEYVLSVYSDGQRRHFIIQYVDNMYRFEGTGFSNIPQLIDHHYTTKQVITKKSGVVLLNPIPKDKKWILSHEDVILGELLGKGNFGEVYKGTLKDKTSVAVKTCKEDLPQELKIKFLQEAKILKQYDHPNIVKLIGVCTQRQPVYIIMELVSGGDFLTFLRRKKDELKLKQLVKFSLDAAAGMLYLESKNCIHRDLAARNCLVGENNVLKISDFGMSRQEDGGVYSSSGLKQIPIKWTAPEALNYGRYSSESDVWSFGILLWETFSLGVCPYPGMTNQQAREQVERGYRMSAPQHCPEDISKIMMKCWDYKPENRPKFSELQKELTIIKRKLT
T8 sequence (Q13177 whole entry): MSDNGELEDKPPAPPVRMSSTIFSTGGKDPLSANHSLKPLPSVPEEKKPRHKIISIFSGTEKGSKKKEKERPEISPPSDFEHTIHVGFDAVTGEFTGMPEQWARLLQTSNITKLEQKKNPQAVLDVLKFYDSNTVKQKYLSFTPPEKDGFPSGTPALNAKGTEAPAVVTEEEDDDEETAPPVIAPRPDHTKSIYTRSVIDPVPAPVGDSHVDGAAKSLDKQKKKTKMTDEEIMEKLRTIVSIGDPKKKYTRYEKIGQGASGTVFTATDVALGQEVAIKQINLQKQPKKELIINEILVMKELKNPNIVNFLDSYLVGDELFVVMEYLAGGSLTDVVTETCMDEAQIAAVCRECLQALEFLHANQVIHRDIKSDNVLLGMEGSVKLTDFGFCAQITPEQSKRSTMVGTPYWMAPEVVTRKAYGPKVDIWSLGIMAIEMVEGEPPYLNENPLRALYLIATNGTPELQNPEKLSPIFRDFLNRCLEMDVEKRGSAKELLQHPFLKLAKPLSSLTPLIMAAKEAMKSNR
T5 sequence (P42336 whole entry H1047R): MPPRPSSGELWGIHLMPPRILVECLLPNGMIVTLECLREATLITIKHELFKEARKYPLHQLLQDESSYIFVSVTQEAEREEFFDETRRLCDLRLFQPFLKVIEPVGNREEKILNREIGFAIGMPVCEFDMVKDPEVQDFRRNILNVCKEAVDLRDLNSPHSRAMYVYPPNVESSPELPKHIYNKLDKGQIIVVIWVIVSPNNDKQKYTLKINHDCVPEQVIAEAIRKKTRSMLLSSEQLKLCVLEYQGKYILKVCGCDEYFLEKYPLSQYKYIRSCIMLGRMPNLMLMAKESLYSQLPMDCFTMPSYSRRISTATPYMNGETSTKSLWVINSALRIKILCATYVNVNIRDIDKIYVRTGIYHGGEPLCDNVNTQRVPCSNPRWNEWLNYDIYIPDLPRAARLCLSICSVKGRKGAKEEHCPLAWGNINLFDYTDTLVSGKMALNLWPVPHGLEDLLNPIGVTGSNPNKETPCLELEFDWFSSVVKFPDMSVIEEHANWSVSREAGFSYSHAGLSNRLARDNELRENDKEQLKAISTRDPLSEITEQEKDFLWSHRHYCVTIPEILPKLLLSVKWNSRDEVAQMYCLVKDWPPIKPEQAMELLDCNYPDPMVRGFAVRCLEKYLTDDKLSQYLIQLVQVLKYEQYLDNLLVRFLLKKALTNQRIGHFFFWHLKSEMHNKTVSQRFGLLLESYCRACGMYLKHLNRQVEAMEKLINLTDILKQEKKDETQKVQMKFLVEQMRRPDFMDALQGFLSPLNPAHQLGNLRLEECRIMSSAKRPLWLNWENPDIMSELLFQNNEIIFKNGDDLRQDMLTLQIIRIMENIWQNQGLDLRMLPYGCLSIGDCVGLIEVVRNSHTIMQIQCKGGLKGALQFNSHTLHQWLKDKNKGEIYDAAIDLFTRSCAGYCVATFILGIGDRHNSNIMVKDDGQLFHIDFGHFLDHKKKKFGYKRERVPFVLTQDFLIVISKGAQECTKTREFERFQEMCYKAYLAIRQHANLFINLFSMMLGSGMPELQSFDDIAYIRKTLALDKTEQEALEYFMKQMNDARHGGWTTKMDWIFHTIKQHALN

SMILES: C=CC(=O)Nc1cc(-c2cc(-c3cc4c([nH]3)CCNC4=O)ccn2)ccc1OC(F)(F)F [compound 11]
- inhibition at 0.01 µM ([1]; 10 nM): 4%
- inhibition at 0.1 µM ([1]; 100 nM): 6%
- inhibition at 1 µM ([1]; 1000 nM): 38%
- inhibition at 0.01 µM ([2]; 10 nM): -2%
- inhibition at 0.1 µM ([2]; 100 nM): 7%
- inhibition at 1 µM ([2]; 1000 nM): 4%
- inhibition at 0.01 µM ([3]; 10 nM): -17%
- inhibition at 0.1 µM ([3]; 100 nM): -14%
- inhibition at 1 µM ([3]; 1000 nM): -12%
- inhibition at 0.01 µM ([4]; 10 nM): 1%
- inhibition at 0.1 µM ([4]; 100 nM): -4%
- inhibition at 1 µM ([4]; 1000 nM): 8%
- inhibition at 0.01 µM ([5]; 10 nM): 0%
- inhibition at 0.1 µM ([5]; 100 nM): 0%
- inhibition at 1 µM ([5]; 1000 nM): 2%
- inhibition at 0.01 µM ([6]; 10 nM): -11%
- inhibition at 0.1 µM ([6]; 100 nM): -18%
- inhibition at 1 µM ([6]; 1000 nM): -11%
- inhibition at 0.01 µM ([7]; 10 nM): -3%
- inhibition at 0.1 µM ([7]; 100 nM): 3%
- inhibition at 1 µM ([7]; 1000 nM): 10%
- inhibition at 0.01 µM ([8]; 10 nM): -3%
- inhibition at 0.1 µM ([8]; 100 nM): -5%
- inhibition at 1 µM ([8]; 1000 nM): -3%
- inhibition at 0.01 µM ([9]; 10 nM): 9%
- inhibition at 0.1 µM ([9]; 100 nM): 8%
- inhibition at 1 µM ([9]; 1000 nM): 6%
- inhibition at 0.01 µM ([10]; 10 nM): 1%
- inhibition at 0.1 µM ([10]; 100 nM): 0%
- inhibition at 1 µM ([10]; 1000 nM): 0%
- inhibition at 0.01 µM ([11]; 10 nM): -6%
- inhibition at 0.1 µM ([11]; 100 nM): -2%
- inhibition at 1 µM ([11]; 1000 nM): -3%
